Test results published in US20150045551A1, “FUSED AZOLE DERIVATIVE” (TAISHO PHARMACEUTICAL CO., LTD, priority 2012, published 2015).

How the values were obtained:
Human V1b receptor [1] = molecular target: T1, Human V1b receptor (Homo sapiens, UniProt P47901); assay: Binding test for V1b receptor ([3H]AVP displacement, crude membrane preparation); set-up: expressed in transfected cells; host or cells: 293FT cells (transient expression); conditions: [3H]AVP 0.4 to 1 nmol/L; membranes of 293FT cells transiently expressing human V1b receptor; room temperature, 60 minutes
T1 sequence (P47901 1-424): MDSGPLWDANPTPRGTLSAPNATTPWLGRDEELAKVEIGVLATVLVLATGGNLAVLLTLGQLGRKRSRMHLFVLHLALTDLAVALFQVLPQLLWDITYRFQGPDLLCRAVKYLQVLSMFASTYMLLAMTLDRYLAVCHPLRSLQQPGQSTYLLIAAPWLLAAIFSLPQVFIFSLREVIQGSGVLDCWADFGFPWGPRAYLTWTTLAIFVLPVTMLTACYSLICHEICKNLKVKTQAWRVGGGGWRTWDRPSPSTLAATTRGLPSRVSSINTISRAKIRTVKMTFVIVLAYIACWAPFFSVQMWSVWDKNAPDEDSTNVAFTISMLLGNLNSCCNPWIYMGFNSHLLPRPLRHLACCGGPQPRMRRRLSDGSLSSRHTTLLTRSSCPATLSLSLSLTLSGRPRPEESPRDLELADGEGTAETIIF
Description: Human V1b receptor was transiently expressed in 293FT cells, which were then recovered and homogenated in a 15 mmol/L tris-hydrochloric acid buffer (pH 7.4 and containing 2 mmol/L magnesium chloride, 0.3 mmol/L ethylenediaminetetracetic acid, and 1 mmol/L glycol ether diaminetetraacetic acid). The resulting homogenate was centrifuged at 50,000×g at 4 ° C. for 20 minutes. The precipitate was resuspended in a 75 mmol/L tris-hydrochloric acid buffer (pH 7.4 and containing 12.5 mmol/L magnesium chloride, 0.3 mmol/L ethylenediaminetetracetic acid, 1 mmol/L glycol ether diaminetetraacetic acid, and 250 mmol/L sucrose) to give a crude membrane preparation, which was stored at −80° C. until the binding test was initiated. In the binding test, the crude membrane preparation was diluted with a 50 mmol/L tris-hydrochloric acid buffer (pH 7.4 and containing 10 mmol/L magnesium chloride and 0.1% bovine serum albumin) and mixed with each test compound and [^3H]AVP (final concentration: 0.4 to 1 nmol/L), followed by incubation at room temperature for 60 minutes. The test compound was serially diluted with DMSO so that it would have final concentrations of 0.01 nmol/L to […] at the time of mixing. After the incubation, the mixture was suction filtered through a GF/C filter that was preliminarily impregnated with 0.3% polyethyleneimine. The GF/C filter was dried and after adding a scintillator, the residual radioactivity on the filter was measured using TopCount (PerkinElmer Inc.). The radioactivity in the presence of unlabeled AVP at 10 μmol/L was defined as 0%, and the radioactivity in the absence of unlabeled AVP was defined as 100%. A dose-response curve was plotted from radioactivities in the presence of a test compound at various concentrations, and the 50% inhibitory concentration (IC50 value) of the test compound was calculated.

Human V1b receptor [2] = molecular target: T1, Human V1b receptor; assay: Measurement of V1b receptor antagonistic activity (AVP-induced Fluo-4 fluorescence, FDSS); format: cell-based; set-up: expressed in transfected cells; conditions: CHO cells stably expressing human V1b receptor; AVP 2.5 nmol/L; 30 minutes preincubation with test compound
Description: CHO cells so modified as to express human V1b receptor in a stable manner were cultured in Ham's F-12 medium (containing 10% FBS and 0.5 mg/mL Geneticin). On the day before the test, seeding was conducted at a density of 20,000 cells/well in a 96-well poly-D-lysine coated black plate. On the day of the test, the culture medium was removed, and a loading solution (1×HBSS, 10 mmol/L HEPES, 0.1% bovine serum albumin, 1.25 mmol/L Probenecid, 0.02% Pluronic F-127, 1.5 μmol/L Fluo-4-AM, pH 7.4) was added to each well, followed by incubation in a CO2 incubator for an hour. After the incubation, the loading solution was removed. A test solution (1×HBSS, 10 mmol/L HEPES, 0.1% bovine serum albumin, 1.25 mmol/L Probenecid, pH 7.4) containing any one of test compounds was added to wells, followed by incubation in a CO2 incubator for 30 minutes. The test compound was serially diluted with DMSO so that it would have final concentrations of 0.1 nmol/L to 1 μmol/L at the time of assaying. After the incubation, fluorescence intensity levels were measured and AVP added by means of FDSS (Hamamatsu Photonics K.K.); AVP was added to give a final concentration of 2.5 nmol/L at the time of assaying. […] The fluorescence level in a well to which neither test compound nor AVP was added was defined as 0%, and the fluorescence level in a well to which only AVP was added and no test compound was added was defined as 100%. A dose-response curve was plotted from fluorescence levels after the addition of AVP in the presence of a test compound at various concentrations, and the 50% inhibitory concentration (IC50 value) of the compound was calculated.

Row | IC50 (Human V1b receptor [1]) | IC50 (Human V1b receptor [2]) | Compound
1 | 14.4 nM | 212 nM | CC(C)NC(=O)Cn1c(-c2cccc(Cl)c2)nc2cc(OCCCN3CCCCC3)ccc21 [Example A-1, 2-{2-(3-chlorophenyl)-5-[3-(piperidin-1-yl)propoxy]-1H-benzimidazol-1-yl}-N-isopropyl acetamide]
2 | 43.3 nM | 122 nM | COc1cc(-c2nc3cc(OCCCN4CCCCC4)ccc3n2CC(=O)NC(C)C)ccc1F [Example A-5, 2-{2-(4-fluoro-3-methoxyphenyl)-5-[3-(piperidin-1-yl)propoxy]-1H-benzimidazol-1-yl}-N-isopropyl acetamide]
3 | 29.3 nM | 25.9 nM | COc1cc(-c2nc3cc(OCCCN4CCOCC4)ccc3n2CC(=O)NC(C)C)ccc1F [Example A-6, 2-{2-(4-fluoro-3-methoxyphenyl)-5-[3-(morpholin-4-yl)propoxy]-1H-benzimidazol-1-yl}-N-isopropyl acetamide]
4 | 2.6 nM | 101 nM | COc1cc(-c2nc3cc(-c4cc(Cl)cc(CN(C)C)c4)ccc3n2CC(=O)NC(C)C)ccc1F [Example A-9, 2-[5-{3-chloro-5-[(dimethylamino)methyl]phenyl}-2-(4-fluoro-3-methoxyphenyl)-1H-benzimidazol-1-yl]-N-isopropyl acetamide]
5 | – | 88 nM | CC(C)NC(=O)Cn1c(-c2ccc(F)c(Cl)c2)nc2cc(OCCCN3CCCCC3)ccc21 [Example A-11, 2-{2-(3-chloro-4-fluorophenyl)-5-[3-(piperidin-1-yl)propoxy]-1H-benzimidazol-1-yl}-N-isopropyl acetamide]
6 | 32.9 nM | 62.4 nM | CC(C)NC(=O)Cn1c(-c2ccc(F)c(Cl)c2)nc2cc(OCCCN3CCCCCC3)ccc21 [Example A-13, 2-{5-[3-(azepan-1-yl)propoxy]-2-(3-chloro-4-fluorophenyl)-1H-benzimidazol-1-yl}-N-isopropyl acetamide]
7 | 12.5 nM | 53.5 nM | CC(C)NC(=O)Cn1c(-c2ccc(F)c(Cl)c2)nc2cc(OCCCN3CCOCC3)ccc21 [Example A-14, 2-{2-(3-chloro-4-fluorophenyl)-5-[3-(morpholin-4-yl)propoxy]-1H-benzimidazol-1-yl}-N-isopropyl acetamide]
8 | 8.7 nM | 97 nM | CC(C)NC(=O)Cn1c(-c2cccc(Cl)c2)cc2cc(OCCCN3CCCCC3)ccc21 [Example B-1, 2-{2-(3-chlorophenyl)-5-[3-(piperidin-1-yl)propoxy]-1H-indol-1-yl}-N-isopropyl acetamide]
9 | 4.9 nM | 21.9 nM | CC(C)NC(=O)Cn1c(-c2ccc(F)c(Cl)c2)cc2cc(OCCCN3CCCCC3)ccc21 [Example B-4, 2-{2-(3-chloro-4-fluorophenyl)-5-[3-(piperidin-1-yl)propoxy]-1H-indol-1-yl}-N-isopropyl acetamide]
10 | 8.9 nM | 8 nM | CC(C)NC(=O)Cn1c(-c2ccc(F)c(Cl)c2)cc2cc(OCCCN3CCOCC3)ccc21 [Example B-5, 2-{2-(3-chloro-4-fluorophenyl)-5-[3-(morpholin-4-yl)propoxy]-1H-indol-1-yl}-N-isopropyl acetamide]
11 | 5.3 nM | 21.4 nM | CC(C)NC(=O)Cn1c(-c2cccc(Cl)c2)cc2cc(OCCCN3CC4(COC4)C3)ccc21 [Example B-9, 2-{2-(3-chlorophenyl)-5-[3-(2-oxa-6-azaspiro[3.3]hept-6-yl)propoxy]-1H-indol-1-yl}-N-isopropyl acetamide]
12 | 166 nM | – | COc1cc(-c2cc3cc(OCCCN4CCC[C@H]4C)ccc3n2CC(=O)NC(C)C)ccc1F [Example B-16, 2-[2-(4-fluoro-3-methoxyphenyl)-5-{3-[(2R)-2-methylpyrrolidin-1-yl]propoxy}-1H-indol-1-yl]-N-isopropyl acetamide]
13 | 0.86 nM | 6 nM | CC(C)NC(=O)Cn1c(-c2ccc(F)c(Cl)c2)cc2cc(OC3CCN(C4CCCC4)CC3)ccc21 [Example B-17, 2-{2-(3-chloro-4-fluorophenyl)-5-[(1-cyclopentylpiperidin-4-yl)oxy]-1H-indol-1-yl}-N-isopropyl acetamide]
14 | 20.1 nM | – | CC(C)NC(=O)Cn1c(-c2cccc(Cl)c2)cc2cc(CCCCN3CCCCC3)ccc21 [Example B-18, 2-{2-(3-chlorophenyl)-5-[4-(piperidin-1-yl)butyl]-1H-indol-1-yl}-N-isopropyl acetamide]
15 | 387 nM | – | COc1cncc(-c2cc3cc(OCCCN4CCCCC4)ccc3n2CC(=O)NC(C)C)c1 [Example B-19, N-isopropyl-2-{2-(5-methoxypyridin-3-yl)-5-[3-(piperidin-1-yl)propoxy]-1H-indol-1-yl}acetamide]
16 | 129 nM | – | COc1cccc(-c2cc3cc(OCCCN4CCCCC4)ccc3n2CC(=O)NC(C)C)c1 [Example B-20, N-isopropyl-2-{2-(3-methoxyphenyl)-5-[3-(piperidin-1-yl)propoxy]-1H-indol-1-yl}acetamide]
17 | 21.4 nM | 50.8 nM | CC(C)NC(=O)Cn1c(-c2cccc(Cl)c2)cc2cc(OCCCN3CCCCC3)cnc21 [Example B-21, 2-{2-(3-chlorophenyl)-5-[3-(piperidin-1-yl)propoxy]-1H-pyrrolo[2,3-b]pyridin-1-yl}-N-isopropyl acetamide]
18 | 47.1 nM | – | CC(C)NC(=O)Cn1c(-c2cccc(Cl)c2)cc2nc(OCCCN3CCCCC3)ccc21 [Example B-22, 2-{2-(3-chlorophenyl)-5-[3-(piperidin-1-yl)propoxy]-1H-pyrrolo[3,2-b]pyridin-1-yl}-N-isopropyl acetamide]
19 | 375 nM | – | CC(C)NC(=O)Cn1c(=O)c2cc(OCCCN3CCCCC3)ccc2n1-c1cccc(Cl)c1 [Example D-1, 2-{1-(3-chlorophenyl)-3-oxo-5-[3-(piperidin-1-yl)propoxy]-1,3-dihydro-2H-indazol-2-yl}-N-isopropyl acetamide]
20 | 522 nM | – | CC(C)NC(=O)Cn1c(-c2cccc(Cl)c2)cc2c1CCN(CCCCN1CCCCC1)C2 [Example E-1, 2-{2-(3-chlorophenyl)-5-[4-(piperidin-1-yl)butyl]-4,5,6,7-tetrahydro-1H-pyrrolo[3,2-c]pyridin-1-yl}-N-isopropyl acetamide]
21 | 82 nM | – | CC(C)NC(=O)Cc1nc2cc(OCCCN3CCCCC3)ccn2c1-c1cccc(Cl)c1 [Example F-1, 2-{3-(3-chlorophenyl)-7-[3-(piperidin-1-yl)propoxy]imidazo[1,2-a]pyridin-2-yl}-N-isopropyl acetamide]

Row | Compound | IC50 (Human V1b receptor [1]) | IC50 (Human V1b receptor [2])
22 | CC(C)NC(=O)Cc1c(-c2ccc(F)c(Cl)c2)nc2cc(OCCCN3CCCCC3)ccn12 [Example C-1, 2-{2-(3-chloro-4-fluorophenyl)-7-[3-(piperidin-1-yl)propoxy]imidazo[1,2-a]pyridin-3-yl}-N-isopropyl acetamide] | 10.7 nM | –
23 | CC(C)NC(=O)Cc1c(-c2ccc(F)c(Cl)c2)nc2cc(OCCCN3CCOCC3)ccn12 [Example C-2, 2-{2-(3-chloro-4-fluorophenyl)-7-[3-(morpholin-4-yl)propoxy]imidazo[1,2-a]pyridin-3-yl}-N-isopropyl acetamide] | 9.9 nM | –
